The supplement of paper PMC11208160

Assay: recombinant UMI read abundance after kanamycin selection (control-corrected) (log10(CPM+1)); higher = more efficient recombination; extreme values may be limits of the assay; sequences stand for … in AGTGCAGAGAAAATCGGCCAGTTTTCTCTGCCTGCAGTCCGCATGCCGTGGGACCCCTTGGGTTCTAACCTGTTGCCTAGATTTATGCAGCGGACTGCCTTTCTCCCAAAGTGATAAACCGG…AGGTTGGTTTCACT; site = the 11-nt donor
Method in brief: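 Sequencing read counts were converted to CPM, averaged over two replicates and scaled by control-derived factors. Results are given as log10(CPM+1). The reads covered the donor–target junction of recombinant UMIs from a pooled Escherichia coli screen of donor and donor-binding-loop pairs for the IS621 bridge recombinase.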
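Note: IS621 bridge recombinase in Escherichia coli cells against a fixed T5 target plasmid.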

Row | Sequence | recombinant UMI read abundance (log10)
1 | ACTTCTACATGGACCGGTTTTCCCGGTAATCCGTATTTGTG (site ACTTCTACTCA) | 0.179
2 | CGATCATCATGGACCGGTTTTCCCGGTAATCCGTATTTGCT (site CGTTCATCTAG) | 1.53
3 | CAAGCGCCATGGACCGGTTTTCCCGGTAATCCGTATTTGTG (site CAAGCCCCTCA) | 0.0168
4 | GGGCCACCATGGACCGGTTTTCCCGGTAATCCGTATTTGCA (site GGGCCACCTTG) | 0
5 | AAGCCTTCATGGACCGGTTTTCCCGGTAATCCGTATTTGGT (site TAGCCTTCTAC) | 0.12
6 | CTGGAGTCATGGACCGGTTTTCCCGGTAATCCGTATTTGCC (site CAGGAGTCTGG) | 2.88
7 | GTTAGGACATGGACCGGTTTTCCCGGTAATCCGTATTTGGC (site GTTAGCACTGC) | 0
8 | ACACCAACATGGACCGGTTTTCCCGGTAATCCGTATTTGTC (site ACACTAACTGA) | 0
9 | CGCAACACATGGACCGGTTTTCCCGGTAATCCGTATTTGCG (site CGCAACACTCG) | 1.19
10 | CGGGAACCATGGACCGGTTTTCCCGGTAATCCGTATTTGAC (site CGGGAACCTGT) | 0
11 | CTAGTAACATGGACCGGTTTTCCCGGTAATCCGTATTTGGA (site CTATTAACTTC) | 0.00934
12 | CAATTCCCATGGACCGGTTTTCCCGGTAATCCGTATTTGAT (site CAATTCCCTAG) | 0
13 | AACGTGTCATGGACCGGTTTTCCCGGTAATCCGTATTTGAC (site AAGGTGTCTGT) | 0
14 | GGTCCAACATGGACCGGTTTTCCCGGTAATCCGTATTTGTA (site GGTCCAACTTC) | 0.0212
15 | TCCAATGCATGGACCGGTTTTCCCGGTAATCCGTATTTGCC (site TCCAATCCTGG) | 0
16 | CGGAACACATGGACCGGTTTTCCCGGTAATCCGTATTTGCA (site CGGAACACTTG) | 2.5
17 | CGATCATCATGGACCGGTTTTCCCGGTAATCCGTATTTGCT (site CCATCATCTTG) | 0
18 | GCTAGCCCATGGACCGGTTTTCCCGGTAATCCGTATTTGAT (site GCTCGCCCTAT) | 0.0134
19 | TGTGATTCATGGACCGGTTTTCCCGGTAATCCGTATTTGTT (site TGTGATTCTAA) | 0
20 | CAACAGGCATGGACCGGTTTTCCCGGTAATCCGTATTTGTA (site CAACAGGCTTA) | 1.18
21 | TCAATCTCATGGACCGGTTTTCCCGGTAATCCGTATTTGGT (site TCAATCTCTAC) | 1.11
22 | AGGAAGACATGGACCGGTTTTCCCGGTAATCCGTATTTGGA (site AGGAAGACTTC) | 2.32
23 | CTTCTCTCATGGACCGGTTTTCCCGGTAATCCGTATTTGTA (site ATTCTCTCTTA) | 0.402
24 | AGGAACACATGGACCGGTTTTCCCGGTAATCCGTATTTGCC (site AGGAACACTGG) | 3.08
25 | AGGTACTCATGGACCGGTTTTCCCGGTAATCCGTATTTGAC (site AGGTACTCTGT) | 3.57

Row | Sequence | recombinant UMI read abundance (log10)
26 | ACAAGAACATGGACCGGTTTTCCCGGTAATCCGTATTTGAG (site ACAAGAACTCT) | 2.72
27 | GCCACGCCATGGACCGGTTTTCCCGGTAATCCGTATTTGAA (site GCCACGCCTTC) | 0.0229
28 | AGCTTCGCATGGACCGGTTTTCCCGGTAATCCGTATTTGAC (site AGCTTCGCTGT) | 1.58
29 | GTAGCTACATGGACCGGTTTTCCCGGTAATCCGTATTTGAC (site GTAGGTACTGT) | 0
30 | TAATGAGCATGGACCGGTTTTCCCGGTAATCCGTATTTGGG (site CAATGAGCTCC) | 0.0721
31 | TTCTACACATGGACCGGTTTTCCCGGTAATCCGTATTTGCT (site CTCTACACTAG) | 1.12
32 | TTAGCGGCATGGACCGGTTTTCCCGGTAATCCGTATTTGTG (site TTAGCGGCTCA) | 1.51
33 | CCCCACACATGGACCGGTTTTCCCGGTAATCCGTATTTGTA (site CCCCACACTCA) | 0.0202
34 | CCGCGCACATGGACCGGTTTTCCCGGTAATCCGTATTTGTT (site CCGCGCACTAA) | 0.0199
35 | ACGTAGACATGGACCGGTTTTCCCGGTAATCCGTATTTGGG (site ACCTAGACTCC) | 0.0219
36 | CGAAAGGCATGGACCGGTTTTCCCGGTAATCCGTATTTGCT (site AGAAAGGCTAG) | 0
37 | CGATCATCATGGACCGGTTTTCCCGGTAATCCGTATTTGTA (site CGATCATCTTA) | 2.57
38 | CACCGTCCATGGACCGGTTTTCCCGGTAATCCGTATTTGAT (site CACCGTCCTAT) | 1.03
39 | GTAGGCACATGGACCGGTTTTCCCGGTAATCCGTATTTGTA (site GTACGCACTTA) | 0.279
40 | CAAGAGCCATGGACCGGTTTTCCCGGTAATCCGTATTTGTG (site CAAGTGCCTCA) | 0.0217
41 | TGCACGGCATGGACCGGTTTTCCCGGTAATCCGTATTTGTT (site TGCACGGCTAA) | 0.724
42 | CGGAATACATGGACCGGTTTTCCCGGTAATCCGTATTTGTT (site CGGAATTCTAA) | 0
43 | TGGGCGGCATGGACCGGTTTTCCCGGTAATCCGTATTTGGC (site TGGCCGGCTGC) | 0
44 | ATGTTGGCATGGACCGGTTTTCCCGGTAATCCGTATTTGGC (site ATGTCGGCTGC) | 0.939
45 | AAGGGGCCATGGACCGGTTTTCCCGGTAATCCGTATTTGTG (site AAGGGGCCTCA) | 0.00547
46 | CAGTTTACATGGACCGGTTTTCCCGGTAATCCGTATTTGCT (site CAGTTTACTAG) | 2.07
47 | ACACTATCATGGACCGGTTTTCCCGGTAATCCGTATTTGCA (site ACAATATCTTG) | 2.11
48 | TTTGCGTCATGGACCGGTTTTCCCGGTAATCCGTATTTGCT (site TTTGCGTCTAG) | 0.251
49 | ACGAAAACATGGACCGGTTTTCCCGGTAATCCGTATTTGCT (site ACGAAAACTAG) | 1.81
50 | ACAGGGTCATGGACCGGTTTTCCCGGTAATCCGTATTTGCA (site ACAGGGTCTTG) | 3.2

Row | Sequence | recombinant UMI read abundance (log10)
51 | GCCTGTGCATGGACCGGTTTTCCCGGTAATCCGTATTTGAC (site GCCTGTGCTGT) | 0.472
52 | CAAGTCACATGGACCGGTTTTCCCGGTAATCCGTATTTGTG (site CAAGTCACTCG) | 0.151
53 | GCGAAATCATGGACCGGTTTTCCCGGTAATCCGTATTTGCT (site GCGAAAACTAG) | 0
54 | GTGAAGCCATGGACCGGTTTTCCCGGTAATCCGTATTTGGG (site GGGAAGCCTCC) | 0.00817
55 | CCGTCTACATGGACCGGTTTTCCCGGTAATCCGTATTTGCT (site CCGTATACTAG) | 0
56 | GTAGTCGCATGGACCGGTTTTCCCGGTAATCCGTATTTGTG (site GTAGTCGCTCT) | 1.05
57 | CGGATTGCATGGACCGGTTTTCCCGGTAATCCGTATTTGCT (site CGGATTGCTAG) | 1.79
58 | AATTATGCATGGACCGGTTTTCCCGGTAATCCGTATTTGGA (site AAATATGCTTC) | 1.34
59 | ACCTAGACATGGACCGGTTTTCCCGGTAATCCGTATTTGCG (site ACCTAGACTCT) | 0.262
60 | AGACTTTCATGGACCGGTTTTCCCGGTAATCCGTATTTGAC (site AGTCTTTCTGT) | 0
61 | CAATGCTCATGGACCGGTTTTCCCGGTAATCCGTATTTGAA (site CAATGCGCTTT) | 0.0142
62 | CGGAATCCATGGACCGGTTTTCCCGGTAATCCGTATTTGTT (site CGGAATTCTAG) | 0
63 | TCCAATTCATGGACCGGTTTTCCCGGTAATCCGTATTTGCA (site TCCAATTCTCG) | 0
64 | CCAGGACCATGGACCGGTTTTCCCGGTAATCCGTATTTGGG (site CTAGGACCTCC) | 0.00678
65 | TCATACTCATGGACCGGTTTTCCCGGTAATCCGTATTTGAA (site TCATACTCTTA) | 0
66 | GAAGAGTCATGGACCGGTTTTCCCGGTAATCCGTATTTGTT (site GAAGAGTCTAA) | 2.91
67 | GAGCCCACATGGACCGGTTTTCCCGGTAATCCGTATTTGAT (site GAGCGCACTAT) | 0.0147
68 | TCCAAATCATGGACCGGTTTTCCCGGTAATCCGTATTTGCC (site TCCAACTCTGG) | 0
69 | CTATACACATGGACCGGTTTTCCCGGTAATCCGTATTTGCT (site CTTTACACTAG) | 0.92
70 | CGAAGACCATGGACCGGTTTTCCCGGTAATCCGTATTTGGG (site CGACGACCTCC) | 0.0149
71 | GAATGGCCATGGACCGGTTTTCCCGGTAATCCGTATTTGCA (site GACTGGCCTTG) | 0.0119
72 | CGTTAAGCATGGACCGGTTTTCCCGGTAATCCGTATTTGAA (site CGTTAAGCTTT) | 2
73 | GATGTTCCATGGACCGGTTTTCCCGGTAATCCGTATTTGGT (site GATGTTCCTAC) | 0.0188
74 | GACCTCCCATGGACCGGTTTTCCCGGTAATCCGTATTTGTG (site GACCTCCCTCA) | 0.00533
